From ChEMBL document CHEMBL5608253, “Discovery and Optimization of Aryl Piperidinone Ureas as Selective Formyl Peptide Receptor 2 Agonists” (ACS Med Chem Lett, 2024) come the findings set out here.

Data set [1] addresses T1, N-formyl peptide receptor 2 (Homo sapiens, UniProt P25090).
T1 sequence (P25090 whole entry): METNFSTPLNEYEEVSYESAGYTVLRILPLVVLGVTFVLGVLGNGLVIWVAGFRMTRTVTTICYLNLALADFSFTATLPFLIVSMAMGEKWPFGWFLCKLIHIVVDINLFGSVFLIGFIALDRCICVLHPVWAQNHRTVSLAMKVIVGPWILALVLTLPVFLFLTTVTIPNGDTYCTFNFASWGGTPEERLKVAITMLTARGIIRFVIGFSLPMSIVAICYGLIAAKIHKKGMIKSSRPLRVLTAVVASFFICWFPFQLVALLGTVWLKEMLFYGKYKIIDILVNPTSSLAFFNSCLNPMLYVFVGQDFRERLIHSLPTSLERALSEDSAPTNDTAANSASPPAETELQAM
Put plainly: Agonist activity at human FPR2 expressed in CHO cells assessed as forskolin -induced cAMP level incubated for 30 mins in presence of IBMX by HTRF HiRange cAMP assay. Format: functional, cell-based. For orientation: cAMP levels reflect the balance of adenylyl cyclase and phosphodiesterase activity.

A short description of data set [2]: Agonist activity at rat FPR2 by cAMP assay.
A short description of data set [3]: Permeability across apical to basal side in human Caco-2 cells. Format: ADME, cell-based. The conditions noted are these: read-out: permeability.
A short description of data set [4]: Permeability across basal to apical side in human Caco-2 cells. Particulars: read-out: permeability. Format: ADME, cell-based. (In general: Caco-2 monolayers are a common model of the intestinal barrier.)
Data set [5] in a line: Protein binding in human plasma assessed as free fraction. Format: ADME, cell-free.
A short description of data set [6]: Protein binding in rat plasma assessed as free fraction. Format: ADME, cell-free.
Data set [7] has as its target T2, Cytochrome P450 1A2 (Homo sapiens, UniProt P05177).
T2 sequence (P05177 whole entry): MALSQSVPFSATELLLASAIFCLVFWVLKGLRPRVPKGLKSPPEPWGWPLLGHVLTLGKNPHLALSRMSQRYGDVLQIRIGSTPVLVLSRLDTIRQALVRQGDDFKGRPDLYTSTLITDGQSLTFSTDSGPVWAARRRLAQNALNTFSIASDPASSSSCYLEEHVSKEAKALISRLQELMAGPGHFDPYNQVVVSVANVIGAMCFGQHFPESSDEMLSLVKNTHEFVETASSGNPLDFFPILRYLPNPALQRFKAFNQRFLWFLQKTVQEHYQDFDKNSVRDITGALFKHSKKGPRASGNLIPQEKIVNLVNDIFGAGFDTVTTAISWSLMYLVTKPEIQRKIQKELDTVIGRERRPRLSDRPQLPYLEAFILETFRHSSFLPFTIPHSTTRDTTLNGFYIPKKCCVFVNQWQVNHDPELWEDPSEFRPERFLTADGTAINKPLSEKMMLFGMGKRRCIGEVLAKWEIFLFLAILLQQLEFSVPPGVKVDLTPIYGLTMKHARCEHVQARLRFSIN
The experiment in a line: Inhibition of CYP1A2 (unknown origin). Format: ADME.

Data set [8] concerns the target Cytochrome P450 2C9 (Homo sapiens, UniProt P11712). Put plainly: Inhibition of CYP2C9 (unknown origin). Format: ADME.
The target in data set [9] is Cytochrome P450 2C19 (Homo sapiens, UniProt P33261). Put plainly: Inhibition of CYP2C19 (unknown origin). Format: ADME.
The target of data set [10] is Cytochrome P450 2D6 (Homo sapiens, UniProt P10635). The experiment in a line: Inhibition of CYP2D6 (unknown origin). Format: ADME.
Data set [11] addresses Cytochrome P450 3A4 (Homo sapiens, UniProt P08684). Put plainly: Inhibition of CYP3A4 (unknown origin). Format: ADME.
Data set [12] can be described thus: Cmax in rat at 3 mg/kg, po. Format: ADME, organism-based. Particulars: in vivo.
Data set [13] is described as follows: AUC (total) in rat at 3 mg/kg, po. Format: ADME, organism-based. Particulars: in vivo.
Data set [14] concerns Rattus norvegicus. Put plainly: Anti-inflammatory activity in LPS-treated rat model assessed as increase in IL-10 level at 10 mg/kg measured after 2 hrs relative to control. Format: functional.
Data set [15] can be described thus: Drug concentration in plasma of LPS-treated rat model at 10 mg/kg measured after 2 hrs. Format: ADME, organism-based.

The structures appear in SMILES notation.

Cytochrome P450 3A4, sequence (P08684 whole entry): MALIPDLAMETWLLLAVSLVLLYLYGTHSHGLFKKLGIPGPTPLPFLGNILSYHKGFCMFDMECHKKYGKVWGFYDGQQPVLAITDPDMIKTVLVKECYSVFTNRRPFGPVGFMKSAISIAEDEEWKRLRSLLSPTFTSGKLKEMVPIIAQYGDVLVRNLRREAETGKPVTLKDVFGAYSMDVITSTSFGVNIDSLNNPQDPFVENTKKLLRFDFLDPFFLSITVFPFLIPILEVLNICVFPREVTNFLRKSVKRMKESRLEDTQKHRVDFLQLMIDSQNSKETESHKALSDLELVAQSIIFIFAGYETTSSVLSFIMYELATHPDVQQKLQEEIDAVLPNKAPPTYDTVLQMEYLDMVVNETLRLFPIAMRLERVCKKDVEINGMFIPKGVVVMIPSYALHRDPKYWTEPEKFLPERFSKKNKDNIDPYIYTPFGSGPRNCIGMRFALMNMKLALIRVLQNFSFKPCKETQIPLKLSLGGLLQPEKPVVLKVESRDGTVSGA
Cytochrome P450 2C9, sequence (P11712 whole entry): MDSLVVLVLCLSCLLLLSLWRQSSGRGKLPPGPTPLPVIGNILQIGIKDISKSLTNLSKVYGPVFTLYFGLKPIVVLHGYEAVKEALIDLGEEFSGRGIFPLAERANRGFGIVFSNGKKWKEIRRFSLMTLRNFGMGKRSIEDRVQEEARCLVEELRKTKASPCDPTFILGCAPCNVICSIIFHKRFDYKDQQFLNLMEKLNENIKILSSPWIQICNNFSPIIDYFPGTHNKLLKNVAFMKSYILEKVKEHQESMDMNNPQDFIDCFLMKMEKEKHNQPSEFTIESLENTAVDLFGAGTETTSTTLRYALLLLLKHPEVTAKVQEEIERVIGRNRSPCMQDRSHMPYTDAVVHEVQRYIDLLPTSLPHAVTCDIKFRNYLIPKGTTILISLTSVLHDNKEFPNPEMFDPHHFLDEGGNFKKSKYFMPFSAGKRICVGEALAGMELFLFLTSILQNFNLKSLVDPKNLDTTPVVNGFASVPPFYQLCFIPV
Cytochrome P450 2C19, sequence (P33261 whole entry): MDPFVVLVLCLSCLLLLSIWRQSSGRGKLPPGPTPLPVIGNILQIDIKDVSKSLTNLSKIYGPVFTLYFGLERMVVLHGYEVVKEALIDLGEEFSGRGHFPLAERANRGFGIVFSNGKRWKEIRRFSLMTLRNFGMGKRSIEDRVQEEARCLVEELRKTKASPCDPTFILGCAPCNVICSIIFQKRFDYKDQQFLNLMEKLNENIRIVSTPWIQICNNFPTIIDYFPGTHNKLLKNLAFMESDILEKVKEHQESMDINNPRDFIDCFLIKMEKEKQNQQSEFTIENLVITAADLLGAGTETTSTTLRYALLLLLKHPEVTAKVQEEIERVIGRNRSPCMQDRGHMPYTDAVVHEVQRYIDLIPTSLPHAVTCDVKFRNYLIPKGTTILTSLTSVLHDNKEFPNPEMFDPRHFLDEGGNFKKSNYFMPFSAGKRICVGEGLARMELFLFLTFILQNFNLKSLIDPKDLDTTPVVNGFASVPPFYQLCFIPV
Cytochrome P450 2D6, sequence (P10635 whole entry): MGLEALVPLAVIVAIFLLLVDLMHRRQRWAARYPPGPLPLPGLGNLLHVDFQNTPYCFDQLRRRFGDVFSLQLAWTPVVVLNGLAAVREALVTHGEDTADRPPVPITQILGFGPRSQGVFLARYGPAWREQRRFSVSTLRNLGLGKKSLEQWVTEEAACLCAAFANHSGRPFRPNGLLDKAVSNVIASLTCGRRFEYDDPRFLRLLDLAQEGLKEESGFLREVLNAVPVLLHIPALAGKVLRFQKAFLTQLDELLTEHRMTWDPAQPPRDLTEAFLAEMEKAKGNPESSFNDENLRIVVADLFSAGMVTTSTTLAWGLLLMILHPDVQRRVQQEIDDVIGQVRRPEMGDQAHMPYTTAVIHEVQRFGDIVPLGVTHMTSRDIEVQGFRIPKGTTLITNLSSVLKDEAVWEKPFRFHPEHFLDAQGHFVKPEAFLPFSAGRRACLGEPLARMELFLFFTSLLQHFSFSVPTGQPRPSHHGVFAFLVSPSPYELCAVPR

As to `CS(=O)(=O)Nc1ccccc1-c1ccc(N2CCC[C@@H](NC(=O)Nc3ccc(C(F)(F)F)nc3)C2=O)cc1`, the EC50 in data set [1] worked out at 10 nM.

As to `NC(=O)c1ccccc1-c1ccc(N2CCC[C@@H](NC(=O)Nc3ccc(C(F)(F)F)cc3)C2=O)cc1`, in data set [1], the EC50 is 2.8 nM.

Consider `CS(=O)(=O)Nc1ccccc1-c1ccc(N2CCC[C@@H](NC(=O)Nc3ccc(Cl)cc3)C2=O)cc1`, for which the EC50 in [1] amounted to 0.15 nM; in data set [2] it was 0.4 nM. Further, the Papp A→B in data set [3] was under 1.5 ×10⁻⁶ cm/s. Besides, the Papp B→A in data set [4] is 41.8 ×10⁻⁶ cm/s. In addition, the fraction unbound came to 0.02 in data set [5] and 0.01 in [6]. In addition, the INH in data set [7], in data set [8], in data set [9], in data set [10] and in data set [11] was over 10 µM in each case. This compound returned a Cmax in data set [12] of 300 nM. For the same compound, the AUC in data set [13] was 1.13 µM·h. Besides, in [14], the Activity is on record as 140%. The compound further yielded a concentration at 2 h in [15] of 490 nM.

As for `CS(=O)(=O)Nc1ccccc1-c1ccc(N2CCC[C@@H](NC(=O)Nc3ccc(Cl)cc3F)C2=O)cc1`, the EC50 in data set [1] worked out at 0.2 nM; in data set [2] it was 0.6 nM. Also, in data set [3], the Papp A→B stood at 4.4 ×10⁻⁶ cm/s. Also, the Papp B→A in data set [4] turned out to be 29.1 ×10⁻⁶ cm/s. Besides, the fraction unbound in data set [5] and in data set [6] was 0.03 throughout. Besides, the INH in data set [7], in data set [8], in data set [9], in data set [10] and in data set [11] was over 10 µM in each case. Besides, the Cmax in data set [12] came out at 610 nM. This compound also came in with an area under the curve (AUC) in [13] of 2.7 µM·h. For the same compound, in [14], the Activity worked out at 128%. This compound also registered a concentration at 2 h in data set [15] of 1700 nM.

Consider `CS(=O)(=O)Nc1ccccc1-c1ccc(N2CCC[C@@H](NC(=O)Nc3ccc(C(F)(F)F)cn3)C2=O)cc1`, for which the EC50 in data set [1] is 4.5 nM.

As for `CS(=O)(=O)Nc1ccccc1-c1ccc(N2CCC[C@@H](NC(=O)Nc3ccc(C(F)(F)F)cc3)C2=O)cc1`, the EC50 was 0.14 nM in data set [1] and 0.5 nM in data set [2]. Besides, in data set [3], the Papp A→B was under 1.5 ×10⁻⁶ cm/s. Besides, the Papp B→A in [4] stood at 32.5 ×10⁻⁶ cm/s. Also, the fraction unbound in [5] and in data set [6] was 0.01 throughout. Moreover, the INH in data set [7], in [8], in data set [9], in data set [10] and in [11] was over 10 µM each time. Besides, the concentration in data set [12] peaked (Cmax) at 110 nM. Besides, the AUC in data set [13] was determined as 0.45 µM·h. The Activity in data set [14] amounted to 183%. This compound returned a concentration at 2 h in data set [15] of 610 nM.

Turning to `CS(=O)(=O)Nc1ccccc1-c1ccc(N2CCC[C@@H](NC(=O)Nc3ccc(C(F)(F)F)cc3F)C2=O)cc1`, the EC50 in [1] is 0.6 nM.

On to `COc1cnc(NC(=O)N[C@@H]2CCCN(c3ccc(-c4ccccc4NS(C)(=O)=O)cc3)C2=O)c(F)c1`, for which, in [3], the Papp A→B was found to be 11 ×10⁻⁶ cm/s. For the same compound, the Papp B→A in [4] stood at 44 ×10⁻⁶ cm/s. Also, the fraction unbound in [5] was found to be 0.12; in [6], 0.08. The INH in data set [7], in [8], in data set [9], in data set [10] and in data set [11] was over 10 µM throughout. In data set [12], this compound showed a Cmax of 830 nM. The AUC in data set [13] worked out at 1.7 µM·h.

For `COc1ccc(NC(=O)N[C@@H]2CCCN(c3ccc(-c4ccccc4NS(C)(=O)=O)cc3)C2=O)cc1`, the EC50 in data set [1] worked out at 0.3 nM.

`CS(=N)(=O)c1ccccc1-c1ccc(N2CCC[C@@H](NC(=O)Nc3ccc(C(F)(F)F)cc3)C2=O)cc1` (stereo in doubt; 9): the EC50 in data set [1] amounted to 1.6 nM.

For `CS(=N)(=O)c1ccccc1-c1ccc(N2CCC[C@@H](NC(=O)Nc3ccc(C(F)(F)F)cc3)C2=O)cc1` (stereo in doubt; 10), the EC50 in [1] was 9 nM.

In general, EC50 refers to the concentration needed to bring the measured effect to its halfway point. One may read the fraction unbound as the share of the substance not bound to proteins or other matrix. As usually defined, the Cmax is the highest concentration seen after dosing. Broadly, the AUC is the area under the concentration-time curve, a measure of exposure. A lower AUC goes with low exposure.
